# Reference: US20170247326A1, “Substituted Pyrrolidine Carboxamide Compounds” (EPIZYME, INC., priority 2014, published 2017)
# Molecular target: T1, SMYD2 (Homo sapiens, UniProt Q9NRG4)
# T1 construct: Full length SMYD2 (NP_064582.2) was cloned; His6 (N, cleaved yes); FLAG (N); made in house; host or cells: Sf9 insect cells
# Test: SMYD2 biochemical assay (3H-SAM, biotinylated peptide substrate, Flashplate)
# Details: Table 1; average of n = 1 to n = 50; read-out: SMYD2 Biochem IC50
# From the text: S-adenosylmethionine (SAM), S-adenosylhomocysteine (SAH), bicine, Tween20, dimethylsulfoxide (DMSO), bovine skin gelatin (BSG), and Tris(2-carboxyethyl)phosphine hydrochloride (TCEP) were purchased from Sigma-Aldrich at the highest level of purity possible. ^3H-SAM was purchase from American Radiolabeled Chemicals with a specific activity of 80 Ci/mmol. 384-well streptavidin Flashplates were purchased from PerkinElmer.
# Peptide was synthesized with a N-terminal linker-affinity tag motif and a C-terminal amide cap by 21st Century Biochemicals. The peptide was high high-performance liquid chromatography (HPLC) purified to greater than 95% purity and confirmed by liquid chromatography mass spectrometry (LC-MS). The sequence was […](K-Biot)-amide. (SEQ ID NO: 3)
# Full length SMYD2 (NP_064582.2) was cloned into a pFastbac-Htb-lic vector with an N-terminal His6 tag and FLAG tag, preceded by a TEV protease cleavage site. The protein was expressed in Sf9 insect cells. Cells were resuspended in lysis buffer (25 mM HEPES-NaOH, pH 7.5, 200 mM NaCl, 5% glycerol, and 5 mM […] and lysed by sonication. The protein was purified by Ni-NTA (Qiagen), followed by TEV cleavage to remove the His6 tag, subtractive Ni-NTA (Qiagen), and gel filtration chromatography using an S200 column (GE Healthcare). Purified protein was stored in 20 mM Tris-HCl, pH 8.0, 100 mM NaCl, and 1 mM TCEP.
# General Procedure for SMYD2 Enzyme Assays on Peptide Substrates
# The assays were all performed in a buffer consisting of 20 mM Bicine (pH=7.6), 1 mM TCEP, 0.005% Bovine Skin Gelatin, and 0.002% Tween20, prepared on the day of use. Compounds in 100% DMSO (1 ul) were spotted into a polypropylene 384-well V-bottom plates (Greiner) using a Platemate Plus outfitted with a 384-channel head (Thermo Scientific). DMSO (1 ul) was added to Columns 11, 12, 23, 24, rows A-H for the maximum signal control and 1 ul of SAH, a known product and inhibitor of SMYD2, was added to columns 11, 12, 23, 24, rows I-P for the minimum signal control. A cocktail (40 ul) containing the SMYD2 enzyme was added by Multidrop Combi (Thermo-Fisher). The compounds were allowed to incubate with SMYD2 for 30 min at room temperature, then a cocktail (10 ul) containing ^3H-SAM and peptide was added to initiate the reaction (final volume=51 ul). The final concentrations of the components were as follows: SMYD2 was 1.5 nM, ^3H-SAM was 10 nM, and peptide was 60 nM, SAH in the minimum signal control wells was 1000 uM, and the DMSO concentration was 2%. The assays were stopped by the addition of non-radioactive SAM (10 ul) to a final concentration of 600 uM, which dilutes the ^3H-SAM to a level where its incorporation into the peptide substrate is no longer detectable. 50 ul of the reaction in the 384-well polypropylene plate was then transferred to a 384-well Flashplate and the biotinylated peptides were allowed to bind to the streptavidin surface for at least 1 hour before being washed three times with 0.1% Tween20 in a Biotek ELx405 plate washer. The plates were then read in a PerkinElmer TopCount plate reader to measure the quantity of ^3H-labeled peptide bound to the Flashplate surface, measured as disintegrations per minute (dpm) or alternatively, referred to as counts per minute (cpm).
# Where dpm=disintegrations per minute, cmpd=signal in assay well, and min and max are the respective minimum and maximum signal controls.
# Where top and bottom are the normally allowed to float, but may be fixed at 100 or 0 respectively in a 3-parameter fit. The Hill Coefficient normally allowed to float but may also be fixed at 1 in a 3-parameter fit. I is the compound concentration.
# SMYD2 biochemical assay data for representative Compounds of the Disclosure are presented in Tables 1, 3, and 4 in the column titled “SMYD2 Bicohem IC50 (μM).”
# T1 sequence (Q9NRG4 whole entry): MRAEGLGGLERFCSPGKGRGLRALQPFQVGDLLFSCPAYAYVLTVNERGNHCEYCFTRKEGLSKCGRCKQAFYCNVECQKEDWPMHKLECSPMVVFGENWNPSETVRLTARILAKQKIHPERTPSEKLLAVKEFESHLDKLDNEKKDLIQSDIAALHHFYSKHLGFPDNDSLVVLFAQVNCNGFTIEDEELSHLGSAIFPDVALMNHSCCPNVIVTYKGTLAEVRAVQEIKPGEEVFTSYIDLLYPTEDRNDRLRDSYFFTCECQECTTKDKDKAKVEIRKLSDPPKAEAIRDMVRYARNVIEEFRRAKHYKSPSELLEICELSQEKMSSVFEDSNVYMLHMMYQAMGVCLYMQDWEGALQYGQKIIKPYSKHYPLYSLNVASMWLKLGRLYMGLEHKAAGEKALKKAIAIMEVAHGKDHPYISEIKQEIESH
row,SMILES,IC50 [µM]
1,"C[C@H]1CN(C2CC2)C[C@@H]1NC(=O)c1cn(C2CC2)nn1 (racemic) [compound 18, (±)-trans-1-cyclopropyl-N-(1-cyclopropyl-4-methylpyrrolidin-3-yl)-1H-1,2,3-triazole-4-carboxamide]",13.2
2,"C[C@H]1CN(C2CC2)C[C@H]1NC(=O)c1cc(O)nn1C (racemic) [compound 16, (±)-cis-N-(1-cyclopropyl-4-methylpyrrolidin-3-yl)-3-hydroxy-1-methyl-1H-pyrazole-5-carboxamide]",> 50
3,"C[C@H]1CN(C2CC2)C[C@@H]1NC(=O)c1ccc2c(c1)OC(F)(F)O2 (racemic) [compound 1, (±)-trans-N-(1-cyclopropyl-4-methylpyrrolidin-3-yl)-2,2-difluorobenzo[d][1,3]dioxole-5-carboxamide]",> 50
4,"C[C@H]1CN(C2CC2)C[C@H]1NC(=O)c1ccc2[nH]c(=O)[nH]c2c1 (racemic) [compound 23, (±)-cis-N-(1-cyclopropyl-4-methylpyrrolidin-3-yl)-2-oxo-2,3-dihydro-1H-benzo[d]imidazole-5-carboxamide]",> 50
5,"C[C@H]1CN(C2CC2)C[C@@H]1NC(=O)c1ccc2[nH]c(=O)[nH]c2c1 (racemic) [compound 22, (±)-trans-N-(1-cyclopropyl-4-methylpyrrolidin-3-yl)-2-oxo-2,3-dihydro-1H-benzo[d]imidazole-5-carboxamide]",> 50
6,"Cc1cc(C(=O)N[C@H]2CN(C3CC3)C[C@@H]2C)n(Cc2ccccc2)n1 (racemic) [compound 9, (±)-trans-1-benzyl-N-(1-cyclopropyl-4-methylpyrrolidin-3-yl)-3-methyl-1H-pyrazole-5-carboxamide]",> 50
7,"C[C@H]1CN(C2CC2)C[C@H]1NC(=O)c1ccc2c(c1)CC(=O)N2 (racemic) [Cpd. No. 6, (±)-cis-N-(1-cyclopropyl-4-methylpyrrolidin-3-yl)-2-oxoindoline-5-carboxamide]",> 50

# Same assay, conditions: Table 3; average of n = 1 to n = 50; read-out: SMYD2 Biochem IC50
row,SMILES,IC50 [µM]
1,"CC(C)N1C[C@H](C)[C@H](NC(=O)c2ccc(C3CC3)[nH]c2=O)C1 (racemic) [compound 83, (±)-cis-6-cyclopropyl-N-[4-methyl-1-(propan-2-yl)pyrrolidin-3-yl]-2-oxo-1,2-dihydropyridine-3-carboxamide]",> 50
2,"CC(C)N1C[C@H](C)[C@H](NC(=O)c2cncc(C3CC3)n2)C1 (racemic) [compound 42, (±)-cis-6-cyclopropyl-N-[4-methyl-1-(propan-2-yl)pyrrolidin-3-yl]pyrazine-2-carboxamide]",> 50
3,"CC(C)N1C[C@H](C)[C@H](NC(=O)c2c[nH]c(C3CC3)n2)C1 (racemic) [compound 77, (±)-cis-2-cyclopropyl-N-[4-methyl-1-(propan-2-yl)pyrrolidin-3-yl]-1H-imidazole-4-carboxamide]",> 50
4,"CC(=O)N[C@@H]1CN(C(C)C)C[C@@H]1C (racemic) [compound 40, (±)-cis-N-[4-methyl-1-(propan-2-yl)pyrrolidin-3-yl]acetamide]",> 50
5,"CC(C)N1C[C@@H](C)[C@H](NC(=O)c2ncc(C3CC3)o2)C1 (racemic) [compound 73, (±)-trans-5-cyclopropyl-N-[4-methyl-1-(propan-2-yl)pyrrolidin-3-yl]-1,3-oxazole-2-carboxamide]",> 50
6,"CC(C)N1C[C@@H](C)[C@@H](NC(=O)c2cc(C3CC3)cnn2)C1 (stereo in doubt) [compound 101, rel-5-cyclopropyl-N-[(3R,4R)-4-methyl-1-(propan-2-yl)pyrrolidin-3-yl]pyridazine-3-carboxamide]",0.245
7,"CC(C)N1C[C@@H](C)[C@H](NC(=O)c2cc(C3CC3)ncn2)C1 (racemic) [compound 68, (±)-trans-6-cyclopropyl-N-[4-methyl-1-(propan-2-yl)pyrrolidin-3-yl]pyrimidine-4-carboxamide]",> 50
8,"CC(=O)N[C@@H]1CN(C(C)C)C[C@H]1C (racemic) [compound 58, (±)-trans-N-[4-methyl-1-(propan-2-yl)pyrrolidin-3-yl]acetamide]",> 50
9,"CC(C)N1C[C@H](C)[C@H](NC(=O)c2ncc(C3CC3)cn2)C1 (racemic) [compound 59, (±)-cis-5-cyclopropyl-N-[4-methyl-1-(propan-2-yl)pyrrolidin-3-yl]pyrimidine-2-carboxamide]",> 50
10,"CC(C)N1C[C@H](NC(=O)c2cnn(C(C)C)c2)[C@@H](C)C1 (racemic) [compound 47, (±)-trans-N-[4-methyl-1-(propan-2-yl)pyrrolidin-3-yl]-1-(propan-2-yl)-1H-pyrazole-4-carboxamide]",> 50
11,"CC(C)N1C[C@H](C)[C@H](NC(=O)c2nnc(C3CC3)s2)C1 (racemic) [compound 41, (±)-cis-5-cyclopropyl-N-[4-methyl-1-(propan-2-yl)pyrrolidin-3-yl]-1,3,4-thiadiazole-2-carboxamide]",2.68
12,"CC(C)N1C[C@H](C)[C@H](NC(=O)c2ncc(C3CC3)[nH]2)C1 (racemic) [compound 79, (±)-cis-5-cyclopropyl-N-[4-methyl-1-(propan-2-yl)pyrrolidin-3-yl]-1H-imidazole-2-carboxamide]",1.96
13,"CC(C)N1C[C@H](C)[C@H](NC(=O)c2nc(C3CC3)no2)C1 (racemic) [compound 81, (±)-cis-3-cyclopropyl-N-[4-methyl-1-(propan-2-yl)pyrrolidin-3-yl]-1,2,4-oxadiazole-5-carboxamide]",> 50
14,"CCN1C[C@H](C)[C@H](NC(=O)c2cc(C3CC3)cnn2)C1 (racemic) [compound 100, (±)-cis-5-cyclopropyl-N-(1-ethyl-4-methylpyrrolidin-3-yl)pyridazine-3-carboxamide]",0.611
15,"CC(C)N1C[C@@H](C)[C@H](NC(=O)c2ccc3c(c2)OCC(=O)N3)C1 (racemic) [compound 28, (±)-trans-N-[4-methyl-1-(propan-2-yl)pyrrolidin-3-yl]-3-oxo-3,4-dihydro-2H-1,4-benzoxazine-7-carboxamide]",> 50
16,"CC(C)N1C[C@@H](C)[C@@H](NC(=O)c2cn(C3CC3)cn2)C1 (stereo in doubt) [compound 121, (±)-cis-1-cyclopropyl-N-(1-isopropyl-4-methylpyrrolidin-3-yl)-1H-imidazole-4-carboxamide]",2.2
17,"C[C@@H]1CN(Cc2ccc(OCc3ccccc3)cc2)C[C@@H]1NC(=O)c1cc(C2CC2)cnn1 (racemic) [compound 104, (±)-cis-N-(1-{[4-(benzyloxy)phenyl]methyl}-4-methylpyrrolidin-3-yl)-5-cyclopropylpyridazine-3-carboxamide]",0.0917
18,"CC(C)N1C[C@H](C)[C@H](NC(=O)c2nsc(C3CC3)n2)C1 (racemic) [compound 88, (±)-cis-5-cyclopropyl-N-[4-methyl-1-(propan-2-yl)pyrrolidin-3-yl]-1,2,4-thiadiazole-3-carboxamide]",> 50

# Same assay, conditions: Table 4; average of n = 1 to n = 50; read-out: SMYD2 Biochem IC50
row,SMILES,IC50 [µM]
1,"C[C@H]1CN(Cc2ccc(OCc3ccccc3)cc2)C[C@@H]1NC(=O)c1cc(C2CC2)cnn1 (racemic) [compound 132, rac-N-((3R,4S)-1-(4-(benzyloxy)benzyl)-4-methylpyrrolidin-3-yl)-5-cyclopropylpyridazine-3-carboxamide]",2.7
2,"CC(C)c1cnnc(C(=O)N[C@@H]2CN(C(C)C)C[C@@H]2C)c1 (racemic) [compound 124, rac-5-isopropyl-N-((3R,4R)-1-isopropyl-4-methylpyrrolidin-3-yl)pyridazine-3-carboxamide]",10.4
